The assay deals with CXCR4 dependent pseudotyped virus (NL4-3). The assay can be described thus: Single cycle HIV infection assay, pseudotyped luciferase reporter virus, time of addition. The settings on record: for activity at 0.2 µM: read-out: viral infection level, % of control levels; for inhibition of pseudotyped virus expression: all time points of addition, 0.2 μM. Background: Reporter assays use an easily measured gene product as a stand-in for the process of interest.

Each structure is given as a SMILES string. Like-named read-outs stand apart in the source and are kept apart here.

For `Cc1ccnc2c1NC(=O)c1cccnc1N2C1CC1` [nevirapine], the activity at 0.2 µM is, setting by setting: (Human immunodeficiency virus 1, NL43, 10 h) 67%; (Human immunodeficiency virus 1, NL43, 14 h) 85%. In addition, the “time post virus exposure within which addition suppresses pseudotyped virus replication” value (time of addition, DP178 20 μg/ml, mAb#19 20 μg/ml, nevirapine 0.2 μM, Tat inhibitor 50 μM) is listed as “approximately 10 hours”.

In the case of `Cc1c(O)cccc1C(=O)N[C@@H](CSc1ccccc1)[C@H](O)CN1C[C@H]2CCCC[C@H]2C[C@H]1C(=O)NC(C)(C)C` [nelfinavir], the “inhibition of pseudotyped virus expression” value is “ineffectual”. Further, the “inhibition of pseudotyped virus expression” value (listed as protease inhibitor) was “does not, therefore, inhibit”.
